The record followed here is patent US7501421B2, “Benzoxazole and benzothiazole derivatives as 5-hydroxytryptamine-6 ligands” (Wyeth, priority 2006, dated 2009).

Where a name gives a salt, the structure may show the parent alone.

For the experiment, the target named is human cloned 5-HT6 receptors (Homo sapiens, UniProt P50406). Briefly: Evaluation of 5-HT6 binding affinity ([3H]-LSD radioligand binding).
human cloned 5-HT6 receptors, sequence (P50406 whole entry): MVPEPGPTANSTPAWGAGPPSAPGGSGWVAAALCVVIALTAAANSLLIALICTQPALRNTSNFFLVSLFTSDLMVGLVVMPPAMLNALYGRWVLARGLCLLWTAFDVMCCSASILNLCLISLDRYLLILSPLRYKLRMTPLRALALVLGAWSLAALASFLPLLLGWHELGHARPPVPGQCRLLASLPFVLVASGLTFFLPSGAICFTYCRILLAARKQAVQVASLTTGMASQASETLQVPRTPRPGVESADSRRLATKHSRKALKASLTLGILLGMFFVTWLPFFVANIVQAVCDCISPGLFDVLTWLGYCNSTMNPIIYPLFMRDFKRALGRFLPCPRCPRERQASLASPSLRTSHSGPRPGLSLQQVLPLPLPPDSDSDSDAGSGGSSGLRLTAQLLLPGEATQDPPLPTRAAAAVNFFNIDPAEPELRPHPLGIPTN

As usually defined, the Ki is the dissociation constant of the complex between target and ligand, obtained from inhibition or displacement. Low values mean a stronger hold on the target, high ones a looser hold on the target. Compound `O=S(=O)(c1ccccc1)c1cccc2oc(N3CCNCC3)nc12` [Example 13] gave an inhibition constant (Ki) of 67 nM.
`CN1CCN(c2nc3c(S(=O)(=O)c4cccc5ccccc45)cccc3o2)CC1` [Example 22, 2-(4-Methylpiperazin-1-yl)-4-(1-naphthylsulfonyl)benzoxazole Dihydrochloride] yielded a Ki of 10 nM.
Compound `O=S(=O)(c1cccc2ccccc12)c1cccc2oc(N3CCN(C4CCCC4)CC3)nc12` [Example 30] registered a Ki of 78 nM.
Take `O=S(=O)(c1cccc2ccccc12)c1cccc2oc(N3CCN(C4CCCCC4)CC3)nc12` [Example 31]: the affinity, expressed as Ki, was 91 nM.
Next, `O=S(=O)(c1cccc2ccccc12)c1cccc2nc(N3CCNCC3)oc12` [Example 34, 7-(1-naphthylsulfonyl)-2-piperazin-1-ylbenzoxazole Dihydrochloride]: 7 nM; `O=S(=O)(c1ccc2nc(N3CCNCC3)sc2c1)c1cccc2ccccc12` [Example 41, 6-(1-Naphthylsulfonyl)-2-piperazin-1-ylbenzothiazole Dihydrochloride]: 500 nM.
